Where two headings read alike, the source gives them in different places.
How the values were obtained:
Phytophthora infestans [1] = format: cell-based; conditions: PI, 48 hours
Pyricularia oryzae [2] = format: cell-based; conditions: PO, 48 hours
Botrytis cinerea = assay: Spore germination test; format: cell-based; conditions: BC, 48 hours
Description: (§1) The test chemical was dissolved or suspended in acetone in an amount such that 0.8 ml of the resulting suspension or solution, mixed with 40 ml water agar produced a water agar solution containing 40, 10, 2.5 and 1 ppm of test chemical. The resulting agar solution, at 50° C., was then divided equally between two sterile petri dishes, each having four separated quadrants, and allowed to solidify. […] quadrants of each dish were flooded with 0.1 ml of a spore suspension in sterile water. Spores of two pathogens, Erysiphe polygoni and Uromyes phaseoli, from infected plant leaves, were brushed on the remaining two quadrants. The tests were then incubated 48 hours, at 24° C.
(§2) Readings were then taken and the percentage of germinated spores calculated. From this percentage, a spore germination rating was assigned as follows: […]

Uromyces phaseoli [3] = assay: Spore germination test; format: cell-based; conditions: UP, 48 hours
Description: as §1, §2

Alternaria solani [4] = assay: Spore germination test; format: cell-based; conditions: AS, 48 hours
Description: as §1, §2

Erysiphe polygoni [5] = assay: Spore germination test; format: cell-based; conditions: EP, 48 hours
Description: as §1, §2

Venturia inaequalis = assay: Spore germination test; format: cell-based; conditions: VI, 48 hours
Description: VI = Venturia inaequalis
as §1, §2

Cladosporium cucumerinum [6] = assay: Spore germination test; format: cell-based; conditions: CC, 48 hours
Description: CC = Cladosporium cucumerinum
as §1, §2

Helminthosporium oryzae = assay: Mycelial growth test; conditions: Bipolaris oryzae, 72 h
Rhizoctonia solani = assay: Mycelial growth test; format: cell-based; conditions: Rhizoctonia solani, 72 h, RS, read-out: Percent Fungus Growth Inhibition
Excerpt: | RS = Rhizoctonia solani

Pythium ultimum = assay: Mycelial growth test; format: cell-based; conditions: Globisporangium ultimum, 72 h, PU, read-out: Percent Fungus Growth Inhibition
Fusarium solani = assay: Mycelial growth test; format: cell-based; conditions: Fusarium solani, 72 h; for inhibition at 5 ppm / inhibition at 10 ppm / inhibition at 20 ppm: PS, 72 hours, read-out: Percent Fungus Growth Inhibition; for inhibition at 40 ppm: read-out: Percent Fungus Growth Inhibition, PS, 40 ppm, 72 hours
Sclerotinia fructicola = assay: Mycelial growth test; format: cell-based; conditions: Sclerotinia, 72 h, SF, read-out: Percent Fungus Growth Inhibition
Excerpt: | SF = Sclerotinia fructicola

Cladosporium cucumerinum [7] = assay: Mycelial growth test; format: cell-based; conditions: Cladosporium cucumerinum, CC, read-out: Percent Fungus Growth Inhibition; for inhibition at 5 ppm / inhibition at 10 ppm / inhibition at 40 ppm: 72 h; for inhibition at 20 ppm: CC20, 72 h
Excerpt: |CC = Cladosporium cucumerinum

Pyricularia oryzae [8] = assay: microbe, parasite or virus in culture; format: cell-based; conditions: Pyricularia oryzae, 72 h; for inhibition at 5 ppm: read-out: Percent Fungus Growth Inhibition, PO, 5 ppm, 72 hours; for inhibition at 10 ppm: read-out: Percent Fungus Growth Inhibition, PO, 10 ppm, 72 hours; for inhibition at 20 ppm: read-out: Percent Fungus Growth Inhibition, PO, 20 ppm, 72 hours; for inhibition at 40 ppm: read-out: Percent Fungus Growth Inhibition, PO, 40 ppm, 72 hours
Alternaria solani [9] = assay: Mycelial growth test; format: cell-based; conditions: Alternaria solani, 72 h, AS, read-out: Percent Fungus Growth Inhibition
Erysiphe polygoni [10] = assay: whole plant or invertebrate; conditions: foliar, 24 h, read-out: Percent Disease Control, curative, bean powdery mildew
Pyricularia oryzae [11] = assay: whole plant or invertebrate; format: in vivo; conditions: Pyricularia oryzae, foliar, 24 h, read-out: Percent Disease Control, curative, rice blast, 150 ppm, 24 hours after inoculation
Phytophthora infestans [12] = assay: whole plant or invertebrate; format: in vivo; conditions: Phytophthora infestans, in Solanum lycopersicum, foliar, read-out: Percent Disease Control, foliar, tomato late blight, 150 ppm, protective
Uromyces phaseoli [13] = assay: whole plant or invertebrate; conditions: foliar, read-out: Percent Disease Control, foliar, bean rust
Uromyces phaseoli [14] = assay: whole plant or invertebrate; conditions: foliar, 24 h, read-out: Percent Disease Control, curative, bean rust
[15] = read-out: Percent Fungus Growth Inhibition

CCCCNC(=O)n1c(NC(=O)OC)nc2ccccc21 [Benomyl, reference compound]
Spore Germination Rating (Phytophthora infestans [1]; 1.0 ppm): 2 (40-60)
Spore Germination Rating (Phytophthora infestans [1]; 2.5 ppm): 2 (40-60)
Spore Germination Rating (Phytophthora infestans [1]; 10 ppm): 0 (0-10)
Spore Germination Rating (Phytophthora infestans [1]; 40 ppm): 1 (10-40)
Spore Germination Rating (Pyricularia oryzae [2]; 1.0 ppm): 4 (80-100)
Spore Germination Rating (Pyricularia oryzae [2]; 2.5 ppm): 4 (80-100)
Spore Germination Rating (Pyricularia oryzae [2]; 10 ppm): 3 (60-80)
Spore Germination Rating (Pyricularia oryzae [2]; 40 ppm): 0 (0-10)
Spore Germination Rating (Botrytis cinerea; 1.0 ppm): 4 (80-100)
Spore Germination Rating (Botrytis cinerea; 2.5 ppm): 4 (80-100)
Spore Germination Rating (Botrytis cinerea; 10 ppm): 4 (80-100)
Spore Germination Rating (Botrytis cinerea; 40 ppm): 4 (80-100)
Spore Germination Rating (Uromyces phaseoli [3]; 1.0 ppm): 4 (80-100)
Spore Germination Rating (Uromyces phaseoli [3]; 2.5 ppm): 1 (10-40)
Spore Germination Rating (Uromyces phaseoli [3]; 10 ppm): 1 (10-40)
Spore Germination Rating (Uromyces phaseoli [3]; 40 ppm): 0 (0-10)
Spore Germination Rating (Alternaria solani [4]; 1.0 ppm): 4 (80-100)
Spore Germination Rating (Alternaria solani [4]; 2.5 ppm): 4 (80-100)
Spore Germination Rating (Alternaria solani [4]; 10 ppm): 4 (80-100)
Spore Germination Rating (Alternaria solani [4]; 40 ppm): 4 (80-100)
Spore Germination Rating (Erysiphe polygoni [5]; 1.0 ppm): 2 (40-60)
Spore Germination Rating (Erysiphe polygoni [5]; 2.5 ppm): 2 (40-60)
Spore Germination Rating (Erysiphe polygoni [5]; 10 ppm): 0 (0-10)
Spore Germination Rating (Erysiphe polygoni [5]; 40 ppm): 0 (0-10)
Spore Germination Rating (Venturia inaequalis; 1.0 ppm): 3 (60-80)
Spore Germination Rating (Venturia inaequalis; 2.5 ppm): 3 (60-80)
Spore Germination Rating (Venturia inaequalis; 10 ppm): 0 (0-10)
Spore Germination Rating (Venturia inaequalis; 40 ppm): 0 (0-10)
Spore Germination Rating (Cladosporium cucumerinum [6]; 1.0 ppm): 4 (80-100)
Spore Germination Rating (Cladosporium cucumerinum [6]; 2.5 ppm): 4 (80-100)
Spore Germination Rating (Cladosporium cucumerinum [6]; 10 ppm): 3 (60-80)
Spore Germination Rating (Cladosporium cucumerinum [6]; 40 ppm): 0 (0-10)

O=C1C2CC=CCC2C(=O)N1SC(Cl)(Cl)Cl (stereo not shown) [Captan, reference compound]
inhibition at 5 ppm (Helminthosporium oryzae; [15]): 18%
inhibition at 10 ppm (Helminthosporium oryzae; [15]): 46%
inhibition at 20 ppm (Helminthosporium oryzae; [15]): 62%
inhibition at 40 ppm (Helminthosporium oryzae; [15]): 65%
inhibition at 5 ppm (Rhizoctonia solani): 0%
inhibition at 10 ppm (Rhizoctonia solani): 0%
inhibition at 20 ppm (Rhizoctonia solani): 0%
inhibition at 40 ppm (Rhizoctonia solani): 0%
inhibition at 5 ppm (Pythium ultimum): 0%
inhibition at 10 ppm (Pythium ultimum): 0%
inhibition at 20 ppm (Pythium ultimum): 0%
inhibition at 40 ppm (Pythium ultimum): 0%
inhibition at 5 ppm (Fusarium solani): 19%
inhibition at 10 ppm (Fusarium solani): 33%
inhibition at 20 ppm (Fusarium solani): 48%
inhibition at 40 ppm (Fusarium solani): 44%

N#Cc1c(Cl)c(Cl)c(Cl)c(C#N)c1Cl [Chlorothalonil, reference compound]
inhibition at 5 ppm (Helminthosporium oryzae; [15]): 50%
inhibition at 10 ppm (Helminthosporium oryzae; [15]): 59%
inhibition at 20 ppm (Helminthosporium oryzae; [15]): 73%
inhibition at 40 ppm (Helminthosporium oryzae; [15]): 95%
inhibition at 5 ppm (Sclerotinia fructicola): 67%
inhibition at 10 ppm (Sclerotinia fructicola): 70%
inhibition at 20 ppm (Sclerotinia fructicola): 76%
inhibition at 40 ppm (Sclerotinia fructicola): 82%
inhibition at 5 ppm (Rhizoctonia solani): 31%
inhibition at 10 ppm (Rhizoctonia solani): 40%
inhibition at 20 ppm (Rhizoctonia solani): 53%
inhibition at 40 ppm (Rhizoctonia solani): 73%
inhibition at 5 ppm (Pythium ultimum): 0%
inhibition at 10 ppm (Pythium ultimum): 31%
inhibition at 20 ppm (Pythium ultimum): 100%
inhibition at 40 ppm (Pythium ultimum): 100%
inhibition at 5 ppm (Fusarium solani): 41%
inhibition at 10 ppm (Fusarium solani): 41%
inhibition at 20 ppm (Fusarium solani): 76%
inhibition at 40 ppm (Fusarium solani): 88%
inhibition at 5 ppm (Cladosporium cucumerinum [7]): 63%
inhibition at 10 ppm (Cladosporium cucumerinum [7]): 63%
inhibition at 40 ppm (Cladosporium cucumerinum [7]): 96%
inhibition at 20 ppm (Cladosporium cucumerinum [7]): 71%
inhibition at 5 ppm (Pyricularia oryzae [8]): 26%
inhibition at 10 ppm (Pyricularia oryzae [8]): 15%
inhibition at 20 ppm (Pyricularia oryzae [8]): 41%
inhibition at 40 ppm (Pyricularia oryzae [8]): 48%
inhibition at 5 ppm (Alternaria solani [9]): 44%
inhibition at 10 ppm (Alternaria solani [9]): 50%
inhibition at 20 ppm (Alternaria solani [9]): 38%
inhibition at 40 ppm (Alternaria solani [9]): 75%

CSc1ccc(Oc2nsnc(Cl)c2=O)cc1 [Compound 39, 3-chloro-5-[(4-methylthio)phenoxy]-4H-1,2,6,-thiadiazin-4-one]
inhibition at 5 ppm (Helminthosporium oryzae; read-out: Percent Fungus Growth Inhibition, HO, 5 ppm, 72 hours): 73%
inhibition at 10 ppm (Helminthosporium oryzae; read-out: Percent Fungus Growth Inhibition, HO, 10 ppm, 72 hours): 87%
inhibition at 20 ppm (Helminthosporium oryzae; read-out: Percent Fungus Growth Inhibition, HO, 20 ppm, 72 hours): 100%
inhibition at 40 ppm (Helminthosporium oryzae; read-out: Percent Fungus Growth Inhibition, HO, 40 ppm, 72 hours): 80%
pest or weed control at 150 ppm (Erysiphe polygoni [10]): 0%
pest or weed control at 150 ppm (Pyricularia oryzae [11]): 0%
inhibition at 5 ppm (Sclerotinia fructicola): 41%
inhibition at 10 ppm (Sclerotinia fructicola): 48%
inhibition at 20 ppm (Sclerotinia fructicola): 63%
inhibition at 40 ppm (Sclerotinia fructicola): 85%
pest or weed control at 150 ppm (Phytophthora infestans [12]): 0%
inhibition at 5 ppm (Rhizoctonia solani): 24%
inhibition at 10 ppm (Rhizoctonia solani): 31%
inhibition at 20 ppm (Rhizoctonia solani): 31%
inhibition at 40 ppm (Rhizoctonia solani): 42%
pest or weed control at 150 ppm (Uromyces phaseoli [13]): 98%
Spore Germination Rating (Phytophthora infestans [1]; 1.0 ppm): 4 (80-100)
Spore Germination Rating (Phytophthora infestans [1]; 2.5 ppm): 4 (80-100)
Spore Germination Rating (Phytophthora infestans [1]; 10 ppm): 3 (60-80)
Spore Germination Rating (Phytophthora infestans [1]; 40 ppm): 3 (60-80)
Spore Germination Rating (Pyricularia oryzae [2]; 1.0 ppm): 2 (40-60)
Spore Germination Rating (Pyricularia oryzae [2]; 2.5 ppm): 1 (10-40)
Spore Germination Rating (Pyricularia oryzae [2]; 10 ppm): 1 (10-40)
Spore Germination Rating (Pyricularia oryzae [2]; 40 ppm): 0 (0-10)
inhibition at 5 ppm (Pythium ultimum): 0%
inhibition at 10 ppm (Pythium ultimum): 24%
inhibition at 20 ppm (Pythium ultimum): 100%
inhibition at 40 ppm (Pythium ultimum): 100%
Spore Germination Rating (Botrytis cinerea; 1.0 ppm): 4 (80-100)
Spore Germination Rating (Botrytis cinerea; 2.5 ppm): 4 (80-100)
Spore Germination Rating (Botrytis cinerea; 10 ppm): 4 (80-100)
Spore Germination Rating (Botrytis cinerea; 40 ppm): 3 (60-80)
Spore Germination Rating (Uromyces phaseoli [3]; 1.0 ppm): 2 (40-60)
Spore Germination Rating (Uromyces phaseoli [3]; 2.5 ppm): 2 (40-60)
Spore Germination Rating (Uromyces phaseoli [3]; 10 ppm): 2 (40-60)
Spore Germination Rating (Uromyces phaseoli [3]; 40 ppm): 0 (0-10)
Spore Germination Rating (Alternaria solani [4]; 1.0 ppm): 4 (80-100)
Spore Germination Rating (Alternaria solani [4]; 2.5 ppm): 3 (60-80)
Spore Germination Rating (Alternaria solani [4]; 10 ppm): 2 (40-60)
Spore Germination Rating (Alternaria solani [4]; 40 ppm): 0 (0-10)
Spore Germination Rating (Erysiphe polygoni [5]; 1.0 ppm): 2 (40-60)
Spore Germination Rating (Erysiphe polygoni [5]; 2.5 ppm): 1 (10-40)
Spore Germination Rating (Erysiphe polygoni [5]; 10 ppm): 2 (40-60)
Spore Germination Rating (Erysiphe polygoni [5]; 40 ppm): 0 (0-10)
inhibition at 5 ppm (Fusarium solani): 42%
inhibition at 10 ppm (Fusarium solani): 79%
inhibition at 20 ppm (Fusarium solani): 68%
inhibition at 40 ppm (Fusarium solani): 42%
inhibition at 5 ppm (Cladosporium cucumerinum [7]): 16%
inhibition at 10 ppm (Cladosporium cucumerinum [7]): 16%
inhibition at 40 ppm (Cladosporium cucumerinum [7]): 32%
inhibition at 20 ppm (Cladosporium cucumerinum [7]): 23%
inhibition at 5 ppm (Pyricularia oryzae [8]): 42%
inhibition at 10 ppm (Pyricularia oryzae [8]): 61%
inhibition at 20 ppm (Pyricularia oryzae [8]): 61%
inhibition at 40 ppm (Pyricularia oryzae [8]): 61%
pest or weed control at 150 ppm (Uromyces phaseoli [14]): 0%
inhibition at 5 ppm (Alternaria solani [9]): 42%
inhibition at 10 ppm (Alternaria solani [9]): 33%
inhibition at 20 ppm (Alternaria solani [9]): 42%
inhibition at 40 ppm (Alternaria solani [9]): 54%
Spore Germination Rating (Cladosporium cucumerinum [6]; 1.0 ppm): 1 (10-40)
Spore Germination Rating (Cladosporium cucumerinum [6]; 2.5 ppm): 0 (0-10)
Spore Germination Rating (Cladosporium cucumerinum [6]; 10 ppm): 0 (0-10)
Spore Germination Rating (Cladosporium cucumerinum [6]; 40 ppm): 0 (0-10)
